Results: patent US20070219224A1, “Compositions and Methods Relating to Pyrimidine Synthesis Inhibitors” (UAB RESEARCH FOUNDATION, THE, priority 2004, published 2007)
Entries after “also recorded” stand apart in the source; their conditions may differ. Marks after values point to notes of the source that are not given here.

Experiments:
[1] = tested on: IFN-α, IL-1β, KC, TNF-α in BALF; assay: Measurement of proinflammatory cytokines in BALF (ELISA); type: in vivo, BALB/c mice; settings: RSV-infected mice, d2
Description: (§1) Preparation of viral inocula and infection of mice. Preparation of viral stocks and intranasal infection of eight to twelve week-old pathogen-free BALB/c mice of either sex with RSV strain A2 (10^6 PFU in 100 μl) were performed as described in Davis et al., “Nucleotide-mediated inhibition of alveolar fluid clearance in BALB/c mice after respiratory syncytial virus infection,” Am. J. Physiol. Lung Cell Mol. Physiol. 286:L112-L120. (2004). Data for each experimental group was derived from a minimum of 2 independent infections.
(§2) Bronchoalveolar lavage. Bronchoalveolar lavage fluid (BALF) was collected as previously described in Davis et al., (2004), using 1 ml of sterile normal saline for cytokine ELISAs, or 0.3 ml of sterile saline for nucleotide assays. Lavagates were centrifuged to remove cells and supernatants stored at −80° C.
Systemic inhibition of de novo pyrimidine and purine synthesis. Leflunomide (5-methylisoxazole-4-[4-trifluoromethyl]carboxanilide, 35 mg/kg in distilled water containing 1% methylcellulose) was administered once daily by oral gavage in a volume of 300 μl/mouse for 8 days prior to infection, then throughout the infection period. Vehicle controls were gavaged with an equivalent volume of 1% methylcellulose in distilled water. […].
Measurement of proinflammatory cytokines in BALF. Cytokine levels were determined using Quantikine M ELISA kits (R & D Systems), in accordance with manufacturer's instructions.

[2] = type: in vivo
Description: as §1
(§3) Systemic inhibition of de novo pyrimidine and purine synthesis. Leflunomide (5-methylisoxazole-4-[4-trifluoromethyl]carboxanilide, 35 mg/kg in distilled water containing 1% methylcellulose) was administered once daily by oral gavage in a volume of 300 μl/mouse for 8 days prior to infection, then throughout the infection period. Vehicle controls were gavaged with an equivalent volume of 1% methylcellulose in distilled water. […]

[3] = tested on: RSV strain A2; assay: RSV replication in mouse lungs; type: in vivo, Respiratory syncytial virus; settings: RSV-infected mice, day 2 p.i.; systemic treatment
Description: as §1, §3

[4] = tested on: RSV-infected BALB/c mice; assay: Lung water content (wet:dry weight ratio) after RSV infection; type: in vivo
Description: as §1, §3

[5] = tested on: RSV-infected BALB/c mice; assay: Alveolar fluid clearance (AFC) in RSV-infected mice at day 2 p.i.; type: in vivo; set-up: effect of uridine in the AFC instillate on the A77-1726 effect on AFC: dose or concentration left out as unconfirmed; settings: for effect on RSV-mediated inhibition of AFC at day 2 p.i. (in words): added to the AFC instillate; for effect on RSV-mediated inhibition of AFC at d2 (in words): systemic treatment (leflunomide oral gavage; uridine, 6-MP i.p.)
Description: Preparation of viral inocula and infection of mice. […] J. Physiol. Lung Cell Mol. Physiol. […] Data for each experimental group was derived from a minimum of 2 independent infections.
Systemic inhibition of de novo pyrimidine and purine synthesis. Leflunomide (5-methylisoxazole-4-[4-trifluoromethyl]carboxanilide, 35 mg/kg in distilled water containing 1% methylcellulose) was administered once daily by oral gavage in a volume of 300 μl/mouse for 8 days prior to infection, then throughout the infection period. Vehicle controls were gavaged with an equivalent volume of 1% methylcellulose in distilled water.
To systemically block de novo pyrimidine synthesis, mice were gavaged once daily for 8 days with […] of the dihydro-orotate reductase (DHOR) inhibitor leflunomide ([…] suspended in 1% methylcellulose) or vehicle prior to infection, then at 0 and 24 hours p.i. AFC studies were performed at 48 hours p.i., with no additions to the AFC instillate.
(§4) AFC studies were performed on anesthetized, ventilated BALB/c mice with normal body temperature and blood gases, over a 30 minute period after intratracheal instillation of 0.3 ml of isosmolar NaCl containing 5% fatty acid-free BSA. The number of mice analyzed per group is listed in the relevant bar of each graph.

[6] = tested on: uninfected BALB/c mice; assay: Alveolar fluid clearance (AFC) in uninfected or mock-infected mice; type: in vivo; settings: uninfected mice
Description: Systemic inhibition of de novo pyrimidine and purine synthesis. […] Vehicle controls were gavaged with an equivalent volume of 1% methylcellulose in distilled water. Uridine (1 g/kg in 0.9% NaCl) was administered by i.p. injection every 12 hours in a volume of 100 μl (8). […]
as §4

[7] = tested on: UTP/ATP content of BALF; assay: Measurement of nucleotides (UTP/ATP content) in BALF of RSV-infected mice; type: in vivo, BALB/c mice; settings: d2
Description: as §1, §2
Measurement of nucleotides in BALF. Endogenous nucleotidases in BALF were heat denatured (100° C., 3 minutes) and UTP/ATP content measured using the […] and luciferine-luciferase assays, respectively.
as §3

[8] = RSV-infected mice, day 2 p.i., final concentration 25 μM (Table 6)
[9] = RSV-infected mice, d2, inhibitor 100 μM in AFC instillate (Table 5)

Molecule: Sc1ncnc2nc[nH]c12 [6-MP, 6-mercaptopurine]
- BALF proinflammatory cytokine levels (IFN-α, IL-1β, KC, TNF-α) (in words) [1]: comparable decline
- IFN-α, mean cytokine concentration in BALF ± SE ([1]; systemic treatment): 105 ± 14 pg/mL
- IL-1β, mean cytokine concentration in BALF ± SE ([1]; systemic treatment): 9 ± 3 pg/mL
- KC, mean cytokine concentration in BALF ± SE ([1]; systemic treatment): 329 ± 63 pg/mL
- TNF-α, mean cytokine concentration in BALF ± SE ([1]; systemic treatment): 0*** pg/ml
- tolerance to anesthesia ([2]; 6-MP 35 mg/kg i.p. every 24 hours): poor tolerance to anesthesia (resulting in sporadic deaths)
- body weight loss after RSV infection ([2]; D1 and d2 p.i., versus untreated RSV-infected mice): significant increase in body weight loss
- body weight during the pretreatment (preinfection) period ([2]; before RSV infection, leflunomide 8 days, 6-MP 5 days): significant loss of body weight
- virus replication in lung tissue at d2 [3]: no significant inhibitory effect
- lung water content (wet:dry weight ratio) (in words) ([4]; day 2, systemic treatment): did not alter lung wet:dry weight ratios
- AFC30BASAL (mean % basal AFC after 30 minutes ± SE) [5, 8]: 26.31 ± 1.85 %
- effect on RSV-mediated inhibition of AFC at day 2 p.i. (in words) [5]: only a minor effect
- effect on RSV-mediated inhibition of AFC at day 2 p.i. (in words) ([5]; listed as 6-mercaptopurine): not and only a small blocking effect
- effect on RSV-mediated inhibition of AFC at d2 (in words) [5]: no effect on AFC

Molecule: C/C(O)=C(\C#N)C(=O)Nc1ccc(C(F)(F)F)cc1 [A77-1726]
- lung wet:dry weight ratios, intranasal treatment ([4]; A77-1726 intranasal): normalization of lung wet:dry weight ratios
- AFC30BASAL (mean % basal AFC after 30 minutes ± SE) ([6]; 50 μM in 100 μl normal saline intranasally 24 hours prior to AFC assay): 23.19 ± 5.95 %
- effect on RSV-induced inhibition of AFC, intranasal treatment (in words) ([5]; 50 μM in 100 μl normal saline intranasally at 24 hours p.i.): completely blocked
- AFC30BASAL (mean % basal AFC after 30 minutes ± SE) ([5]; RSV day 2 p.i., 50 μM in 100 μl normal saline intranasally 24 hours after infection): 32.68 ± 1.1 %
- AFC30BASAL (mean % basal AFC after 30 minutes ± SE) [5, 8]: 34.06 ± 1.88 %
- effect on RSV-mediated inhibition of AFC at day 2 p.i. (in words) [5]: prevented; also recorded: reverses RSV-mediated inhibition of AFC

Molecule: N=C(N)NC(=O)c1nc(Cl)c(N)nc1N [AMIL, amiloride]
- AFC (mean % AFC ± SE) with amiloride in instillate ([6]; 1.5 mM amiloride added to the instillate): 14.65 ± 1.59 %
- AFC (mean % AFC ± SE) with amiloride in instillate ([5]; RSV-infected mice, d2, 1.5 mM amiloride added to the instillate): 22.82 ± 1.92%

Molecule: CCN(CC)CCOc1ccc(C(=C(Cl)c2ccccc2)c2ccccc2)cc1 [Clomiphene]
- AFC (mean % AFC ± SE) ([5]; RSV-infected mice, d2, inhibitor 20 μM in AFC instillate (Table 5)): 31.05 ± 2.65 %
- AFC30BASAL (mean % basal AFC after 30 minutes ± SE) ([5]; RSV-infected mice, day 2 p.i., final concentration 20 μM (Table 6)): 31.0 ± 2.67 %
- effect on RSV-mediated inhibition of AFC at day 2 p.i. (in words) [5]: blocked

Molecule: CNCCC(Oc1ccc(C(F)(F)F)cc1)c1ccccc1 (stereo not drawn) [Fluoxetine]
- AFC (mean % AFC ± SE) ([5]; RSV-infected mice, d2, inhibitor 10 μM in AFC instillate (Table 5)): 34.54 ± 0.79 %
- AFC30BASAL (mean % basal AFC after 30 minutes ± SE) ([5]; RSV-infected mice, day 2 p.i., final concentration 10 μM (Table 6)): 34.54 ± 0.79 %
- effect on RSV-mediated inhibition of AFC at day 2 p.i. (in words) [5]: blocked RSV-mediated inhibition of AFC

Molecule: O=c1c(-c2ccc(O)cc2)coc2cc(O)cc(O)c12 [Genistein]
- AFC30BASAL (mean % basal AFC after 30 minutes ± SE) [5, 8]: 20.39 ± 0.73%
- effect on RSV-mediated inhibition of AFC at day 2 p.i. (in words) [5]: not recapitulated; also recorded: not replicated

Molecule: COc1ccc(Cl)cc1C(=O)NCCc1ccc(S(=O)(=O)NC(=O)NC2CCCCC2)cc1 [Glibenclamide]
- AFC (mean % AFC ± SE) [5, 9]: 24.24 ± 4.24%
- effect on RSV-mediated inhibition of AFC at day 2 p.i. (in words) [5]: unaffected

Molecule: COc1c(C)c2c(c(O)c1C/C=C(\C)CCC(=O)O)C(=O)OC2 [MPA, mycophenolic acid]
- AFC30BASAL (mean % basal AFC after 30 minutes ± SE) [5, 8]: 26.2 ± 1.7 %
- effect on RSV-mediated inhibition of AFC at day 2 p.i. (in words) [5]: only a minor effect
- effect on RSV-mediated inhibition of AFC at day 2 p.i. (in words) ([5]; listed as mycophenolic acid): not and only a small blocking effect

Molecule: O=C(O)c1cc([N+](=O)[O-])ccc1NCCCc1ccccc1 [NPPB, 5-nitro-2-(3-phenylpropylamino) benzoic acid]
- AFC (mean % AFC ± SE) [5, 9]: 32.70 ± 2.18 %
- AFC30BASAL (mean % basal AFC after 30 minutes ± SE) ([5]; RSV-infected mice, day 2 p.i., final concentration 100 μM (Table 6)): 35.12 ± 1.94 %
- effect on RSV-mediated inhibition of AFC at day 2 p.i. (in words) [5]: blocked

Molecule: O=C(O)c1cccnc1Nc1cccc(C(F)(F)F)c1 [Niflumic acid]
- AFC (mean % AFC ± SE) [5, 9]: 20.28 ± 1.53%
- effect on RSV-mediated inhibition of AFC at day 2 p.i. (in words) [5]: unaffected

Molecule: C[C@]1(C2CCCC2)Cc2cc(OCC(=O)O)c(Cl)c(Cl)c2C1=O [R(+)-IAA 94, R(+)-[(6,7-dichloro-2-cyclopentyl-2,3-dihydro-2-methyl-1-oxo-1H-inden-5yl)-oxy] acetic acid 94]
- AFC (mean % AFC ± SE) [5, 9]: 34.25 ± 1.98 %
- effect on RSV-mediated inhibition of AFC at day 2 p.i. (in words) [5]: blocked

Molecule: CC/C(=C(\c1ccccc1)c1ccc(OCCN(C)C)cc1)c1ccccc1 [Tamoxifen]
- AFC (mean % AFC ± SE) ([5]; RSV-infected mice, d2, inhibitor 25 μM in AFC instillate (Table 5)): 34.50 ± 0.94 %
- AFC30BASAL (mean % basal AFC after 30 minutes ± SE) [5, 8]: 34.5 ± 0.95 %
- effect on RSV-mediated inhibition of AFC at day 2 p.i. (in words) [5]: blocked RSV-mediated inhibition of AFC

Molecule: O=c1ccn([C@@H]2O[C@H](COP(=O)(O)OP(=O)(O)OP(=O)(O)O)[C@@H](O)[C@H]2O)c(=O)[nH]1 [UTP]
- effect of UTP in the AFC instillate on the VRAC inhibitor effect on AFC ([5]; RSV-infected mice, d2, 500 nM UTP): reversed

Molecule: O=c1ccn([C@@H]2O[C@H](CO)[C@@H](O)[C@H]2O)c(=O)[nH]1 [Uridine]
- effect of concomitant uridine on the leflunomide effect on BALF cytokines ([1]; exception IFN-α): only partially reversed
- effect of concomitant uridine on the leflunomide effect on weight loss ([2]; RSV-infected mice, D1 and d2): did not prevent this effect
- virus replication in lung tissue at d2 [3]: no effect on virus replication; also recorded: unaffected
- effect of concomitant uridine on the leflunomide effect on lung water content ([4]; day 2 p.i.): reversed this effect; also recorded: prevented this effect
- effect of uridine in the AFC instillate on the A77-1726 effect on AFC ([5]; RSV-infected mice, day 2 p.i.): fully reversed; also recorded: blocked
- AFC30BASAL (mean % basal AFC after 30 minutes ± SE) ([5]; RSV-infected mice, day 2 p.i., leflunomide 5 mg/kg oral gavage once daily, uridine 1 mg/kg i.p. q12h): 22.89 ± 2.22%
- effect of concomitant uridine on the leflunomide effect on AFC ([5]; RSV-infected mice, day 2 p.i., uridine i.p. throughout the leflunomide treatment period): prevented; also recorded: reversed
- effect on RSV-mediated inhibition of AFC at d2 (in words) [5]: no effect on AFC
- effect of concomitant uridine on the leflunomide effect on BALF nucleotides [7]: reversed the effect of leflunomide on BALF UTP and ATP levels; also recorded: caused a significant increase in the BALF nucleotide content over that in untreated RSV-infected mice

Molecule: O=c1[nH]cnc2nc[nH]c12 [hypoxanthine]
- effect of hypoxanthine in the AFC instillate on the MPA effect on AFC ([5]; RSV-infected mice, day 2 p.i., 50 mM hypoxanthine as printed): fully reversed; also recorded: blocked

Molecule: apyrase
- effect on RSV-mediated inhibition of AFC at day 2 p.i. (in words) [5]: reversed
